What was measured:
Assay type in all cases: cell-based
[1] = target: T1, alpha2B receptor (Homo sapiens, UniProt P18089); experiment: Receptor Selection and Amplification Technology (RSAT) assay, alpha2B; details: for Alpha 2B IA (intrinsic activity): ratio of maximal effect of drug to maximal effect of standard full agonist brimonidine (UK14304); for EC50: read-out: Alpha 2B EC50
T1 construct: expressed in transfected cells; host or cells: NIH-3T3 cells
T1 sequence (P18089 1-450): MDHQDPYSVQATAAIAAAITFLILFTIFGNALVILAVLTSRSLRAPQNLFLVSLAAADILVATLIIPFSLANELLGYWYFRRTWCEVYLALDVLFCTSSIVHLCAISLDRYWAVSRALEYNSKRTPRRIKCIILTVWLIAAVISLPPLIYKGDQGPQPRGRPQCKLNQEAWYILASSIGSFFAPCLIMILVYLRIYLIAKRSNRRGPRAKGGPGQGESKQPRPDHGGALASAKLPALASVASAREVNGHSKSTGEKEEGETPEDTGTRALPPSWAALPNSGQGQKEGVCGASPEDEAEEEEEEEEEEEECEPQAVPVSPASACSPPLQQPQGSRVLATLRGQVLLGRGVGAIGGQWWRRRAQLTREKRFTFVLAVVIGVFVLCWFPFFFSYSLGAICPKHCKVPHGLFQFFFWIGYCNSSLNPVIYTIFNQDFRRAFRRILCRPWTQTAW
Experimental: (§1) The RSAT assay measures a receptor-mediated loss of contact inhibition that results in selective proliferation of receptor-containing cells in a mixed population of confluent cells. The increase in cell number is assessed with an appropriate transfected marker gene such as […]-galactosidase, the activity of which can be easily measured in a 96-well format. Receptors that activate the G protein, Gq, elicit this response. Alpha2 receptors, which normally couple to Gi, activate the RSAT response when coexpressed with a hybrid Gq protein that has a Gi receptor recognition domain, called Gq/i5.
(§2) NIH-3T3 cells are plated at a density of 2×10^6 cells in 15 cm dishes and maintained in Dulbecco's modified Eagle's medium supplemented with 10% calf serum. One day later, cells are cotransfected by calcium phosphate precipitation with mammalian expression plasmids encoding p-SV-[…]-galactosidase (5-10 μg), receptor (1-2 μg) and G protein (1-2 μg). 40 μg salmon sperm DNA may also be included in the transfection mixture. Fresh media is added on the following day and 1-2 days later, cells are harvested and frozen in 50 assay aliquots. Cells are thawed and 100 μl added to 100 μl aliquots of various concentrations of drugs in triplicate in 96-well dishes. Incubations continue 72-96 hr at 37° C. After washing with phosphate-buffered saline, […]-galactosidase enzyme activity is determined by adding 200 μl of the chromogenic substrate (consisting of 3.5 mM o-nitrophenyl-[…]-D-galactopyranoside and 0.5% nonidet P-40 in phosphate buffered saline), incubating overnight at 30° C. and measuring optical density at 420 nm. The absorbance is a measure of enzyme activity, which depends on cell number and reflects a receptor-mediated cell proliferation. The efficacy or intrinsic activity is calculated as a ratio of the maximal effect of the drug to the maximal effect of a standard full agonist for each receptor subtype. Brimonidine, also called UK14304, the chemical structure of which is shown below, is used as the standard agonist for the alpha2A, alpha2B and alpha2C receptors. The EC50 is the concentration at which the drug effect is half of its maximal effect.
(§3) The results of the RSAT assay with several exemplary compounds of the invention are disclosed in Table 1 above together with the chemical formulas of these exemplary compounds. EC50 values are nanomolar. NA stands for “not active” at concentrations less than 10 micromolar. IA stands for “intrinsic activity.”

[2] = target: T2, alpha2C receptor (Homo sapiens, UniProt P18825); experiment: Receptor Selection and Amplification Technology (RSAT) assay, alpha2C; details: for Alpha 2C EC50 / EC50: RSAT, transfected NIH-3T3 cells with Gq/i5, not active = not active at concentrations less than 10 micromolar; for EC50: read-out: Alpha 2C EC50; for Alpha 2C IA (intrinsic activity): ratio of maximal effect of drug to maximal effect of standard full agonist brimonidine (UK14304)
T2 construct: expressed in transfected cells; host or cells: NIH-3T3 cells
T2 sequence (P18825 1-462): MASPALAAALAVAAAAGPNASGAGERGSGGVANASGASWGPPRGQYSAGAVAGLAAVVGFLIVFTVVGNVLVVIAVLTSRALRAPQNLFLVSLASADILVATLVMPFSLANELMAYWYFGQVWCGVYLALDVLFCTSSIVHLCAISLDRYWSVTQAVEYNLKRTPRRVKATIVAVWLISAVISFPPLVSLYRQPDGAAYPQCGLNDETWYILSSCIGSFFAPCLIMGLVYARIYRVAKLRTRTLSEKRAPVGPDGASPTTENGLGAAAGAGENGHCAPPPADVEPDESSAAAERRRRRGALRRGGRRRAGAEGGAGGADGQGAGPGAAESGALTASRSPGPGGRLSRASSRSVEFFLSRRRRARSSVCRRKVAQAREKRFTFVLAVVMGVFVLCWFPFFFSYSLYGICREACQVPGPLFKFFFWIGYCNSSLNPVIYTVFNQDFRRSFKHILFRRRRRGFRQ
Experimental: as §1, §2, §3

[3] = target: T3, alpha2A receptor (Homo sapiens, UniProt P08913); experiment: Receptor Selection and Amplification Technology (RSAT) assay, alpha2A
T3 construct: expressed in transfected cells; host or cells: NIH-3T3 cells
T3 sequence (P08913 1-465): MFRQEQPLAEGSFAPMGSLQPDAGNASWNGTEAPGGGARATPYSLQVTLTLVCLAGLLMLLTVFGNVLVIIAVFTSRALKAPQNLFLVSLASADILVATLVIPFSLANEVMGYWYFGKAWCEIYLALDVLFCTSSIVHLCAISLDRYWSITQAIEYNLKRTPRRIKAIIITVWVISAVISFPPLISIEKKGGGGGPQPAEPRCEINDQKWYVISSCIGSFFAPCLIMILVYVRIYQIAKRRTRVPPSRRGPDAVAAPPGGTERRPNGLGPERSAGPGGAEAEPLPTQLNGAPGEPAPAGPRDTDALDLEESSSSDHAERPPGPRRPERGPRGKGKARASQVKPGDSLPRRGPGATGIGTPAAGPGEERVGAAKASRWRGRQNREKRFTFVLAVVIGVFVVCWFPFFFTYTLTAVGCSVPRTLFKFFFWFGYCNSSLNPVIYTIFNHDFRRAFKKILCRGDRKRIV
Experimental: as §1, §2, §3

[4] = RSAT, transfected NIH-3T3 cells with Gq/i5, not active = not active at concentrations less than 10 micromolar

Row | Alpha 2B EC50 [1, 4] | Alpha 2B IA (intrinsic activity) [1] | Alpha 2C EC50 [2] | Alpha 2A EC50 [3, 4] | EC50 [1, 4] | EC50 [2] | Alpha 2C IA (intrinsic activity) [2] | EC50 ([3]; RSAT, transfected NIH-3T3 cells with Gq/i5, not active = not active at concentrations less than 10 micromolar, read-out: Alpha 2A EC50) | Alpha 2A IA (intrinsic activity) ([3]; ratio of maximal effect of drug to maximal effect of standard full agonist brimonidine (UK14304)) | Structure (SMILES)
1 | high | 0.35 | not active | not active |  |  |  |  |  | CCc1cccc2c1CCCC2N/C(=N\C#N)NCCF (centres unmarked)
2 |  | 0.3 | not active | not active | 988 nM |  |  |  |  | N#C/N=C(/NCCF)NC1CCc2c(Cl)cccc21 (centres unmarked)
3 |  | 0.5 | not active | not active | 560 nM |  |  |  |  | N#C/N=C(\NCCF)NC1CCc2ccc(F)c(F)c21 (centres unmarked)
4 |  | 0.69 |  | not active | 231 nM | 1970 nM | 0.42 |  |  | N#C/N=C(/NCCF)NC1CCCc2c(F)cccc21 (centres unmarked)
5 |  | 0.36 | not active | not active | 282 nM |  |  |  |  | N#C/N=C(/NCCF)NC1CCc2c(F)cccc21 (centres unmarked)
6 |  | 0.47 |  | not active | 417 nM | 1780 nM | 0.33 |  |  | N#C/N=C(/NCCF)NC1CCc2ccccc21 (centres unmarked)
7 |  | 0.34 | not active | not active | 518 nM |  |  |  |  | Cc1ccc2c(c1)C(N/C(=N\C#N)NCCF)CC2 (centres unmarked)
8 |  | 0.7 | not active | not active | 642 nM |  |  |  |  | N#C/N=C(\NCCF)NC1CCc2cccc(Cl)c21 (centres unmarked)
9 |  | 0.65 | not active | not active | 475 nM |  |  |  |  | N#C/N=C(\NCCF)NC1CCc2cccc(F)c21 (centres unmarked)
10 |  | 0.87 |  | not active | 341 nM | 358 nM | 0.58 |  |  | N#C/N=C(/NCCF)NCc1cccc2c1OCC2
11 |  | 0.82 |  | not active | 1450 nM | 2640 nM | 0.32 |  |  | N#C/N=C(/NCCF)NCc1cccc(Br)c1
12 |  | 1.06 |  | not active | 94.3 nM | 1480 nM | 0.41 |  |  | Cc1cccc2c1CCCC2N/C(=N\C#N)NCCF (centres unmarked)
13 |  | 0.35 | not active | not active | 783 nM |  |  |  |  | N#C/N=C(/NCCF)NC1Cc2ccccc2C1
14 |  | 0.59 | not active | not active | 1040 nM |  |  |  |  | CCc1cccc2c1CCC2N/C(=N\C#N)NCCF (centres unmarked)
15 |  | 0.31 |  | not active | 232 nM | 946 nM | 0.36 |  |  | N#C/N=C(\NCCF)NC1CCc2ccc(Cl)cc21 (centres unmarked)
16 |  | 0.73 | not active | not active | 98.6 nM |  |  |  |  | N#C/N=C(\NCCF)NC(Cc1ccccc1)c1ccccc1 (centres unmarked)
17 |  | 0.85 | not active | not active | 941 nM |  |  |  |  | N#C/N=C(/NCCF)NC1CCc2cccc(Br)c21 (centres unmarked)
18 |  | 0.92 | not active | not active | 176 nM |  |  |  |  | N#C/N=C(/NCCF)N[C@H]1CCc2ccccc21
19 |  | 0.37 | not active | not active | 296 nM |  |  |  |  | N#C/N=C(/NCCF)NC1CCCc2c(Cl)cccc21 (centres unmarked)
20 |  | 1.09 |  |  | 60.1 nM | 1530 nM | 0.46 | 759 nM | 0.35 | Cc1cccc2c1CC[C@@H]2N/C(=N\C#N)NCCF
21 |  | 0.95 |  | not active | 73.9 nM | 914 nM | 0.51 |  |  | Cc1cccc2c1CCC2N/C(=N\C#N)NCCF (centres unmarked)
22 |  | 0.74 | not active | not active | 2570 nM |  |  |  |  | N#C/N=C(/NCCF)NC1CCc2c(Br)cccc21 (centres unmarked)
23 |  | 0.42 |  | not active | 167 nM | 376 nM | 0.4 |  |  | N#C/N=C(\NCCF)NC1CCc2ccc(F)cc21 (centres unmarked)
24 |  | 0.93 |  | not active | 78.9 nM | 472 nM | 0.84 |  |  | Cc1cccc(CN/C(=N/C#N)NCCF)c1Cl
